What all share (format): in vivo
Experiment [1] deals with pigweed (Amaranthus retroflexus). Description: Test A preemergence. Particulars: Amaranthus retroflexus, pre-emergence, 240 h.
Experiment [2] concerns ryegrass, Italian (Italian ryegrass, Lolium multiflorum). Description: Test A preemergence. The settings on record: Lolium multiflorum, pre-emergence, 240 h. Summed up: (§1)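 Visual injury, scored on a 0–100 scale relative to untreated controls, was recorded about 10 d after application. Treatments were a preemergence soil spray over planted seeds or a postemergence spray on plants at the one- to two-leaf stage, 2 to 10 cm tall, all in loam soil–sand blend in the greenhouse.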

Experiment [3] deals with Kochia (Kochia scoparia). Description: Test A preemergence. The settings on record: Bassia scoparia, pre-emergence, 240 h. An outline of the steps: as §1
The subject of experiment [4] is barnyardgrass (Echinochloa crus-galli). Description: Test A preemergence. Particulars: Echinochloa crus-galli, pre-emergence, 240 h. Summed up:
as §1

Experiment [5] concerns ragweed (common ragweed, Ambrosia elatior). Description: Test A preemergence. The settings on record: Ambrosia artemisiifolia, pre-emergence, 240 h. An outline of the steps:
as §1

The test system of experiment [6] is giant foxtail (Setaria faberii). Description: Test A preemergence. Particulars: Setaria faberi, pre-emergence, 240 h. An outline of the steps:
as §1

In experiment [7] the test system is corn (Zea mays). Description: Test A postemergence. Particulars: Zea mays, post-emergence, 240 h, 125 g ai/ha, postemergence; visual injury after approximately 10 d; 0 to 100 scale (0 no effect, 100 complete control). Summed up:
as §1

The test system of experiment [8] is pigweed (Amaranthus retroflexus). Description: Test A postemergence. The settings on record: Amaranthus retroflexus, post-emergence, 240 h, 125 g ai/ha, postemergence; visual injury after approximately 10 d; 0 to 100 scale (0 no effect, 100 complete control); read-out: Plant response rating, Pigweed. Summed up:
as §1

Experiment [9] deals with ryegrass, Italian (Italian ryegrass, Lolium multiflorum). Description: Test A postemergence. The settings on record: Lolium multiflorum, post-emergence, 240 h, 125 g ai/ha, postemergence; visual injury after approximately 10 d; 0 to 100 scale (0 no effect, 100 complete control); read-out: Plant response rating, Ryegrass, Italian. Summed up:
as §1

In experiment [10] the test system is Kochia (Kochia scoparia). Description: Test A postemergence. Particulars: Bassia scoparia, post-emergence, 240 h, 125 g ai/ha, postemergence; visual injury after approximately 10 d; 0 to 100 scale (0 no effect, 100 complete control); read-out: Plant response rating, Kochia. An outline of the steps:
as §1

Experiment [11] relates to barnyardgrass (Echinochloa crus-galli). Description: Test A postemergence. Particulars: Echinochloa crus-galli, post-emergence, 240 h, 125 g ai/ha, postemergence; visual injury after approximately 10 d; 0 to 100 scale (0 no effect, 100 complete control); read-out: Plant response rating, Barnyardgrass. An outline of the steps:
as §1

The subject of experiment [12] is ragweed (common ragweed, Ambrosia elatior). Description: Test A postemergence. The settings on record: Ambrosia artemisiifolia, post-emergence, 240 h, 125 g ai/ha, postemergence; visual injury after approximately 10 d; 0 to 100 scale (0 no effect, 100 complete control); read-out: Plant response rating, Ragweed. Summed up: as §1
The subject of experiment [13] is Galium (catchweed bedstraw, Galium aparine). Description: Test A postemergence. Particulars: Galium, post-emergence, 240 h, 125 g ai/ha, postemergence; visual injury after approximately 10 d; 0 to 100 scale (0 no effect, 100 complete control); read-out: Plant response rating, Galium. Summed up: as §1
Experiment [14] concerns wheat (Triticum aestivum). Description: Test A postemergence. The settings on record: Triticum aestivum, post-emergence, 240 h, 125 g ai/ha, postemergence; visual injury after approximately 10 d; 0 to 100 scale (0 no effect, 100 complete control); read-out: Plant response rating, Wheat. An outline of the steps:
as §1

Experiment [15] concerns giant foxtail (Setaria faberii). Description: Test A postemergence. The settings on record: Setaria faberi, post-emergence, 240 h, 125 g ai/ha, postemergence; visual injury after approximately 10 d; 0 to 100 scale (0 no effect, 100 complete control); read-out: Plant response rating, Foxtail, Giant. Summed up: as §1

Molecules are shown by their SMILES.

Take `CS(=O)(=O)c1ccccc1NC(=O)[C@H]1C(=O)NC[C@@H]1c1ccc(OC(F)F)cc1` [Compound 787]: the pest or weed control at 125 g/ha in [1] (125 g ai/ha, preemergence, visual rating after approx. 10 d, 0 to 100 scale where 0 is no effect and 100 is complete control, read-out: Plant response rating, Pigweed) was 50%; in experiment [2] (125 g ai/ha, preemergence, visual rating after approx. 10 d, 0 to 100 scale where 0 is no effect and 100 is complete control, read-out: Plant response rating, Ryegrass, Italian), 0%; in experiment [3] (125 g ai/ha, preemergence, visual rating after approx. 10 d, 0 to 100 scale where 0 is no effect and 100 is complete control, read-out: Plant response rating, Kochia) it was 80%; in experiment [4] (125 g ai/ha, preemergence, visual rating after approx. 10 d, 0 to 100 scale where 0 is no effect and 100 is complete control, read-out: Plant response rating, Barnyardgrass) it was 20%; in experiment [5] (125 g ai/ha, preemergence, visual rating after approx. 10 d, 0 to 100 scale where 0 is no effect and 100 is complete control, read-out: Plant response rating, Ragweed), 70%; in experiment [6] (125 g ai/ha, preemergence, visual rating after approx. 10 d, 0 to 100 scale where 0 is no effect and 100 is complete control, read-out: Plant response rating, Foxtail, Giant) it was 70%. Also, the pest or weed control at 125 g/ha was determined as 60% in [8]; 20% in experiment [9]; 60% in experiment [10]; 30% in experiment [11]; 50% in [12]; 60% in experiment [13]. Moreover, the pest or weed control at 125 g/ha in [15] came to 20%. Besides, the pest or weed control at 500 g/ha turned out to be 80% in experiment [1] (500 g ai/ha, Preemergence, visual injury vs untreated controls after approximately 10 d, read-out: Pigweed plant response rating (0 to 100 scale where 0 is no effect and 100 is complete control)); 0% in experiment [2] (500 g ai/ha, Preemergence, visual injury vs untreated controls after approximately 10 d, read-out: Ryegrass, Italian plant response rating (0 to 100 scale where 0 is no effect and 100 is complete control)); 90% in experiment [3] (500 g ai/ha, Preemergence, visual injury vs untreated controls after approximately 10 d, read-out: Kochia plant response rating (0 to 100 scale where 0 is no effect and 100 is complete control)); 70% in experiment [4] (500 g ai/ha, Preemergence, visual injury vs untreated controls after approximately 10 d, read-out: Barnyardgrass plant response rating (0 to 100 scale where 0 is no effect and 100 is complete control)); 70% in experiment [5] (500 g ai/ha, Preemergence, visual injury vs untreated controls after approximately 10 d, read-out: Ragweed plant response rating (0 to 100 scale where 0 is no effect and 100 is complete control)); 90% in experiment [6] (500 g ai/ha, Preemergence, visual injury vs untreated controls after approximately 10 d, read-out: Foxtail, Giant plant response rating (0 to 100 scale where 0 is no effect and 100 is complete control)). In experiment [7], the Corn plant response rating (crop injury, 0 = no effect, 100 = complete kill) at 125 g/ha is 0%. The plant injury at 125 g/ha in [14] is 0%.
